# Measured values from patent publication US20250017964A1, “ENGINEERING OR INDUCING PDGF AND/OR PDGFR SIGNALING TO ENHANCE NK CELL THERAPY” (City of Hope, priority 2021, published 2025).
# Assays:
# BCL-2, BCL-XL, and MCL-1 = experiment: Immunoblot of BCL-2, BCL-XL and MCL-1 in NK cells; assay type: cell-based, human; conditions: 48 h
# PDGFRB promoter = experiment: ChIP-qPCR, binding of p65 to the PDGFRB promoter; assay type: cell-based, human; conditions: IL-15-stimulated NK cells (1 h); not in resting NK cells
# Method: FIGS. 2A-2I. IL-15-induced PDGFRβ expression is mediated by PI3K/AKT signaling. (A-B) Primary NK cells were treated with IL-15 (10 ng/ml) for the indicated times. mRNA levels of PDGFRB at different time points (A) (n=3) or at 1 h (B) (n=10) were examined by qPCR. (C-D) Primary NK cells were pretreated with actinomycin D (ActD, 5., g/ml) (C) or cycloheximide (CHX, 20 μg/ml) (D) for 1 h, washed twice with RPMI-1640, and then treated with IL-15 (10 ng/ml) for 24 h. DMSO was used as a control. Expression levels of PDGFRβ were examined by flow cytometry (n=5). Data shown are representative histograms and percentage of inhibition with the equation: % inhibition=[…]. (E) Primary NK cells were pretreated with wortmannin (1 μM), afuresertib (10 μM), TPCA-1 (1 μM), rapamycin (10 μM), torin1 (10 μM), decernotinib (10 μM), C118-9 (10 μM), STAT5-IN-1 (10 μM), AZD6244 (10 μM), or CI-1040 (10 μM) for 1 h, washed twice with RPMI 1640, and then treated with IL-15 (10 ng/ml) for 24 h. DMSO was used as control. Data shown are % of inhibition (n=5). The mean value of the inhibitory rate is shown. […] (G-I) Binding of p65 to the PDGFRB promoter in IL-15-treated NK cells (G) or resting NK cells (H) as determined by ChIP-qPCR or PCR (I) (n=3). […]
# Primary NK cells were treated with IL-15 for 1 h. […] The enriched chromatin was analyzed by qPCR using the following primers: […]
substance,measurement,setting,value
"PDGF-D: recombinant human PDGF-DD (1159-SB-025), R&D Systems","expression levels of BCL-2, BCL-XL, and MCL-1","BCL-2, BCL-XL, and MCL-1; IL-15 10 ng/ml and PDGF-D 50 ng/ml",increased the expression levels
same,"receptor dependence of the BCL-2, BCL-XL, and MCL-1 increase","BCL-2, BCL-XL, and MCL-1; with anti-NKp44 or anti-PDGFRβ",NKp44-independent but PDGFRβ-dependent
IL-15: recombinant human IL-15 (200-15); recombinant murine IL-15 in the mouse NK cell test,p65 associated with the PDGFRB promoter versus normal IgG control,PDGFRB promoter,significantly higher levels
